Some results are limits rather than exact numbers.

Drawing on patent publication US9273028B2, “Heterocyclic tyrosine kinase inhibitors” (Biogen MA Inc., priority 2010, dated 2016), this text covers IC50 for 22 molecules.

Holding throughout (assay type): biochemical
One assay deals with T1, BTK (Homo sapiens, UniProt Q06187).
T1 construct: purchased Upstate 14-552
As to the kind of experiment: In vitro BTK kinase assay (BTK-POLYGAT-LS). The conditions noted are these: IC50 (10 uM ATP). Put shortly:
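Poly-GAT peptide at 100 nM with 10 μM ATP (final) in pH 7.5 Tris buffer containing MgCl2, DTT, Triton X-100 and 0.2 mg/ml casein.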

Another assay deals with T2, Tec (Homo sapiens, UniProt P42680).
T2 construct: purchased Carna Biosciences 08-182
T2 sequence (P42680 1-631): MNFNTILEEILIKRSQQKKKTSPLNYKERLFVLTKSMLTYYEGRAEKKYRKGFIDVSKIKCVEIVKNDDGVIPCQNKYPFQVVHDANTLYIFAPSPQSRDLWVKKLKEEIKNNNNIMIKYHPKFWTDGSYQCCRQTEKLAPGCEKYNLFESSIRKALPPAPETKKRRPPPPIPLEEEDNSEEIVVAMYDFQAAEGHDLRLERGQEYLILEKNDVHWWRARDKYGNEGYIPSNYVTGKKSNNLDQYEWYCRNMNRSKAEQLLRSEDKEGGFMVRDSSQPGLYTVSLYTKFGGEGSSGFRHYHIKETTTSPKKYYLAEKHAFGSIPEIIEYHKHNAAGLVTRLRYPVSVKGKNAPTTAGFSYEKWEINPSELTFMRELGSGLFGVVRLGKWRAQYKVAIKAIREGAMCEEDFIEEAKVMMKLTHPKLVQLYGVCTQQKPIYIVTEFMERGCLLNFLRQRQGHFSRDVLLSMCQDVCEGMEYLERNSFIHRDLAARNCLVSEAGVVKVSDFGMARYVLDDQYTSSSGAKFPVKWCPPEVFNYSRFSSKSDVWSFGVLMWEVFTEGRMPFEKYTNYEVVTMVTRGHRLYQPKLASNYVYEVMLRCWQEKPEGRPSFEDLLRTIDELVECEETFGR
Put plainly: In vitro Tec kinase selectivity assay (Tec-POLYGT-LS). The settings on record: ATP 25 μM. The protocol: In Vitro Tec Kinase Selectivity Assay
(§1) The purpose of the Tec in vitro assay is to determine compound potency against Tec through the measurement of IC50. Compound inhibition is measured after monitoring the amount of phosphorylation of a fluorescein-labeled polyGT peptide (Invitrogen PV3610) in the presence of active Tec enzyme (Carna Biosciences 08-182), ATP, and inhibitor. The Tec kinase reaction was done in a black 96 well plate (costar 3694). For a typical assay, a 29 μL aliquot of a ATP/peptide master mix (final concentration; ATP 25 μM, polyGT 100 nM) in kinase buffer (10 mM Tris-HCl pH 7.5, 10 mM MgCl2, 200 μM Na3PO4, 5 mM DTT, 0.01% Triton X-100, and 0.2 mg/ml casein) is added to each well. Next, 1 μL of a 3-fold, 50× compound titration in 100% DMSO solvent is added, followed by adding 20 uL of Tec enzyme mix in 1× kinase buffer (with a final concentration of 0.125 nM). The assay is incubated for 15 minutes before being stopped with 5 μl, of a 220 mM EDTA solution. Aliquots (5 μL) of the kinase reaction are transferred to a low volume white 384 well plate (Corning 3674), and 5 μL of a 2× detection buffer (Invitrogen PV3574, with 2 nM Tb-PY20 antibody, Invitrogen PV3552) is added. The plate is covered and incubated for 45 minutes at room temperature. Time resolved fluorescence (TRF) on Molecular Devices M5 (332 nm excitation; 488 nm emission; 518 nm fluorescein emission) is measured.

The target of another assay is T3, Itk (Homo sapiens, UniProt Q08881).
T3 construct: purchased Carna Bioscience 08-181
T3 sequence (Q08881 1-620): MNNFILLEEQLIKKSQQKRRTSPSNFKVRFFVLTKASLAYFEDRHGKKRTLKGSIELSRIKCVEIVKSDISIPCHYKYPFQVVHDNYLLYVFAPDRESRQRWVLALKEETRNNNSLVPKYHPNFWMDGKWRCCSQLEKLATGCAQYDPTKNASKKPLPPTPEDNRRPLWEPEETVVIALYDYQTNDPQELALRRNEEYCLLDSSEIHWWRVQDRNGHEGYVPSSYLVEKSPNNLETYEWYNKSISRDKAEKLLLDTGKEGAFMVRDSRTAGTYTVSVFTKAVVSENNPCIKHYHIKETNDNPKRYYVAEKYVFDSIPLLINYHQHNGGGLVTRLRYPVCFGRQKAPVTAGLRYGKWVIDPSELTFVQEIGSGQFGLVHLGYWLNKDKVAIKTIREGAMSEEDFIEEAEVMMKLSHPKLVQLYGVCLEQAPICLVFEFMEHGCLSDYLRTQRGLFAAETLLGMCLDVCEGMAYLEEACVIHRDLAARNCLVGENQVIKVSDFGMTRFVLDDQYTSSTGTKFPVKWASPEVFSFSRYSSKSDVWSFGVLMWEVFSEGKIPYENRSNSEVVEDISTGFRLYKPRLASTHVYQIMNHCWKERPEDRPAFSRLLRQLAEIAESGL
Put plainly: Itk kinase selectivity assay (Example 142 procedure, Table 3 modifications). The conditions noted are these: ATP 10 μM. The protocol:
as §1
(§2) Using the procedure described in Example 142, with the modifications shown in Table 3, selectivity for Itk, Txk, and Lck was measured.

The next assay addresses T4, Lck (Homo sapiens, UniProt P06239).
T4 construct: purchased Carna Bioscience 08-170
As to the kind of experiment: Lck kinase selectivity assay (Example 142 procedure, Table 3 modifications). The conditions noted are these: ATP 5 μM. The protocol: as §1, §2

A further assay has as its target T5, Txk (Homo sapiens, UniProt P42681).
T5 construct: purchased Carna Bioscience 08-183
T5 sequence (P42681 1-527): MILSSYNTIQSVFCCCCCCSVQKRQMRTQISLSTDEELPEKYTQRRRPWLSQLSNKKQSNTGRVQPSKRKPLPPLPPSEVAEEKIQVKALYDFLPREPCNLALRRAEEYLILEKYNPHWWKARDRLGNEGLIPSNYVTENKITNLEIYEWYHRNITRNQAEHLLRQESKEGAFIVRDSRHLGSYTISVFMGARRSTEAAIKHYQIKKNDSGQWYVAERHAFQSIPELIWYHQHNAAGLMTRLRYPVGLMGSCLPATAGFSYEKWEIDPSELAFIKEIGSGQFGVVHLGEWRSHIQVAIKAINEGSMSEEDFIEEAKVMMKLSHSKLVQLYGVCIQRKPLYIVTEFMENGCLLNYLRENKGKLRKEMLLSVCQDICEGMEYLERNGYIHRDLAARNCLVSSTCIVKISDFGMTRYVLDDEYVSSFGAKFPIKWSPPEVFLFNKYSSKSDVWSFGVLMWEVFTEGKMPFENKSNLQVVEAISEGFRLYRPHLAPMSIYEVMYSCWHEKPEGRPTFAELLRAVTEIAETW
Put plainly: Txk kinase selectivity assay (Example 142 procedure, Table 3 modifications). The settings on record: ATP 100 μM. The method, then: as §1, §2

T4 sequence (P06239 whole entry): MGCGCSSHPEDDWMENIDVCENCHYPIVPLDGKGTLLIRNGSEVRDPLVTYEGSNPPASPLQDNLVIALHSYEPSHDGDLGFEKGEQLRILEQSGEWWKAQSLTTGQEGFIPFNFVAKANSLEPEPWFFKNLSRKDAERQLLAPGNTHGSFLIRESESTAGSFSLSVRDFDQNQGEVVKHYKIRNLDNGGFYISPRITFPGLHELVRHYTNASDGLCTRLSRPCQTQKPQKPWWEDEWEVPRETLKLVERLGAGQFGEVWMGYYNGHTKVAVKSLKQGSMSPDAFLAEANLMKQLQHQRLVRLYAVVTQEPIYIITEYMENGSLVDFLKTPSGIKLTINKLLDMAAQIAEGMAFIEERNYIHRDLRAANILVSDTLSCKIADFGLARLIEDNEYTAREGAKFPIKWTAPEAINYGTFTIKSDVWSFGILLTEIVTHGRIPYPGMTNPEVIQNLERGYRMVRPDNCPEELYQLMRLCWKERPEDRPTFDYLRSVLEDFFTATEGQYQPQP
T1 sequence (Q06187 whole entry): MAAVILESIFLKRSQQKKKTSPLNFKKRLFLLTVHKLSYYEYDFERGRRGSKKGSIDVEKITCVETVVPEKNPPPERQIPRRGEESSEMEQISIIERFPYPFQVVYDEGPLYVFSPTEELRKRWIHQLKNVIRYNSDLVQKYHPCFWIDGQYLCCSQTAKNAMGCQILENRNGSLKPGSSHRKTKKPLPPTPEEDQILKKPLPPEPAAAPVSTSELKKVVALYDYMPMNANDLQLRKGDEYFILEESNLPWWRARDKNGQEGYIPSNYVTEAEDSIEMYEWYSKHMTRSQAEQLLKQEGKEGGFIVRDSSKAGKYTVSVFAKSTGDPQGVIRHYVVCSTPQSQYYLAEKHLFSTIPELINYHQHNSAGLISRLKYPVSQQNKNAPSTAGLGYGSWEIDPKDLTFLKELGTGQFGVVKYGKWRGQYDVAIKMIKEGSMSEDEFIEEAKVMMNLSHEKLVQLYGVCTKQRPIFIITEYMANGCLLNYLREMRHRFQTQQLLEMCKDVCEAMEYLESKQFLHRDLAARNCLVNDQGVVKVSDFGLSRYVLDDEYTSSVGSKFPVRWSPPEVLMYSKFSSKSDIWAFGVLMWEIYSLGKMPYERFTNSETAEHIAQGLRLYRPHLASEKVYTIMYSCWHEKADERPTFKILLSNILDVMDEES

With `O=C(CNc1cc(F)cc(Cl)c1)N1CCCC(Nc2ncnc3[nH]ccc23)C1C(F)(F)F` (stereo not shown) [Compound 23], the IC50 at BTK is less than 100 nM; against Tec, 100 to 999 nM; at Itk, 1000 to 10000 nM.
With `C[C@@H]1[C@H](Nc2ncnc3[nH]ncc23)CCCN1C(=O)CNc1cc(F)cc(Cl)c1` [Compound 25], the IC50 at BTK was less than 100 nM; at Tec, 100 to 999 nM; against Itk it was 100 to 999 nM.
On to `C[C@@H]1[C@H](Nc2ncnc3[nH]ncc23)CCCN1C(=O)CNc1cc(Cl)cc(Cl)c1` [Compound 29], for which the IC50 is less than 100 nM on BTK, less than 100 nM against Tec and 100 to 999 nM at Itk.
As for `CC1C(Nc2ncnc3[nH]ncc23)CCCN1C(=O)CNc1ccccc1S(=O)(=O)N1CCCCC1` (stereo not shown) [Compound 67], the IC50 against BTK is less than 100 nM; at Tec, 100 to 999 nM; against Itk, 1000 to 10000 nM.
As to `C[C@@H]1[C@H](Nc2ncnc3[nH]ccc23)CCCN1C(=O)CNc1cc(Cl)cc(Cl)c1` [Compound 89], the IC50 against Tec is less than 100 nM; against Itk it was 100 to 999 nM.
Take `O=C(CNc1cc(Cl)cc(Cl)c1)N1Cc2ccccc2C(Nc2ncnc3[nH]ccc23)C1` (stereo not shown) [Compound 96]: the IC50 against BTK was less than 100 nM; at Tec, 100 to 999 nM; against Itk it was 100 to 999 nM; against Lck, 100 to 999 nM; against Txk it was more than 10000 nM.
Consider `CC[C@@H](Nc1cc(Cl)cc(Cl)c1)C(=O)N1CCC2CCN(c3ncnc4[nH]ccc34)C2C1` (stereo partly shown) [Compound 99], for which the IC50 against BTK was less than 100 nM; on Tec, 100 to 999 nM; against Itk, 100 to 999 nM; at Lck, 100 to 999 nM; against Txk, 1000 to 10000 nM.
For the molecule `CCC[C@@H](Nc1cc(F)cc(Cl)c1)C(=O)N1CCC2CCN(c3ncnc4[nH]ccc34)C2C1` (stereo partly shown) [Compound 100], the IC50 on BTK is less than 100 nM; at Tec it was 100 to 999 nM; against Itk, 100 to 999 nM; against Lck, 100 to 999 nM; against Txk it was 1000 to 10000 nM.
On to `CC1C(Nc2ncnc3[nH]ccc23)CCCN1C(=O)CNc1cc(Cl)cc(Cl)c1` (stereo not shown) [Compound 105], for which the half-inhibitory concentration (IC50) at Tec was in the range of 100 to 999 nM; against Itk, 100 to 999 nM; at Lck, 100 to 999 nM; at Txk it was 1000 to 10000 nM.
Consider `O=C(CNc1ccccc1S(=O)(=O)N1CCCCC1)N1CCC2CCN(c3ncnc4[nH]ccc34)C2C1` (stereo not shown) [Compound 113], for which the IC50 on Tec was 1000 to 10000 nM; against Itk, 1000 to 10000 nM; against Lck, more than 10000 nM; against Txk it was 1000 to 10000 nM.
For `O=C(CNc1ccccc1S(=O)(=O)c1ccccc1)N1CCC2CCN(c3ncnc4[nH]ccc34)C2C1` (stereo not shown) [Compound 114], the IC50 against Tec is 100 to 999 nM; against Itk, 100 to 999 nM; at Lck, more than 10000 nM; on Txk it was 100 to 999 nM.
For `O=C(CNc1cc(Cl)cc(Cl)c1)N1CC[C@H]2CCN(c3ncnc4[nH]ccc34)[C@H]2C1` [Compound 123], the IC50 against Tec was less than 100 nM; on Itk, less than 100 nM; against Lck it was 100 to 999 nM; against Txk, 100 to 999 nM.
On to `O=C(CNc1cc(Cl)cc(Cl)c1)N1CC[C@@H]2CCN(c3ncnc4[nH]ccc34)[C@@H]2C1` [Compound 124], for which the IC50 at Tec is less than 100 nM; against Itk, 100 to 999 nM; against Lck it was 100 to 999 nM; against Txk it was 100 to 999 nM.
In the case of `CN(c1ncnc2[nH]ccc12)C1CCCCN(C(=O)CNc2cc(Cl)cc(Cl)c2)C1` (stereo not shown) [Compound 143], the IC50 at Tec, against Itk, on Lck and against Txk was more than 10000 nM each time.
Consider `CN(c1ncnc2[nH]ncc12)C1CCCCN(C(=O)CNc2cc(Cl)cc(Cl)c2)C1` (stereo not shown) [Compound 167], for which the IC50 at Tec is 100 to 999 nM; against Itk it was 1000 to 10000 nM; against Lck, 1000 to 10000 nM; against Txk, more than 10000 nM.
Consider `O=C(CNc1cc(Cl)cc(Cl)c1)N1CC2CC(Nc3ncnc4[nH]ccc34)C1C2` (stereo not shown) [Compound 174], for which the IC50 at BTK is less than 100 nM; on Tec, more than 10000 nM; at Itk, more than 10000 nM; against Lck, more than 10000 nM; against Txk, more than 10000 nM.
In the case of `O=C([C@H](Nc1cc(Cl)cc(Cl)c1)C1CC1)N1CCC2CCN(c3ncnc4[nH]ccc34)C2C1` (stereo partly shown) [Compound 176], the IC50 was less than 100 nM on BTK; 1000 to 10000 nM against Tec; 1000 to 10000 nM at Itk; 100 to 999 nM against Lck; 1000 to 10000 nM on Txk.
Regarding `O=C(CNc1cc(Cl)cc(Cl)c1)N1CCC2CCN(c3ncnc4[nH]ccc34)C2C1` (stereo not shown) [Compound 183], the half-maximal inhibitory concentration (IC50) at Tec is less than 100 nM; on Itk, less than 100 nM; against Lck, 100 to 999 nM; on Txk, 100 to 999 nM.
In the case of `O=C(CNc1cc(Cl)cc(Cl)c1)N1CCC2CCN(c3ncnc4[nH]ncc34)C2C1` (stereo not shown) [Compound 192], the IC50 at BTK was less than 100 nM; against Tec, 100 to 999 nM; on Itk, 100 to 999 nM; on Lck, 100 to 999 nM; at Txk it was 1000 to 10000 nM.
As to `CN(c1ncnc2[nH]ccc12)[C@@H]1CCCN(C(=O)CNc2cc(Cl)cc(Cl)c2)C1` [Compound 209], the IC50 was 100 to 999 nM against Tec, 100 to 999 nM on Itk, 100 to 999 nM at Lck and 1000 to 10000 nM against Txk.
As to `O=C(CNc1cc(Cl)cc(Cl)c1)N1CCC[C@@H](Nc2ncnc3[nH]ccc23)C1` [Compound 220], the IC50 against Tec is 100 to 999 nM; against Itk it was 1000 to 10000 nM; against Lck it was more than 10000 nM; at Txk, more than 10000 nM.
Regarding `NC(=O)c1cnc2[nH]ccc2c1N[C@H]1CCCN(C(=O)CNc2cc(Cl)cc(Cl)c2)[C@H]1C(F)(F)F` [Compound 226], the IC50 against BTK, against Tec, on Itk and at Txk was less than 100 nM throughout.

Usually IC50 stands for the concentration needed to halve the response being measured. Low values mean inhibition by little substance, high ones a need for much substance.
